Measured values as given in patent publication US10966994B2, “Thromboxane receptor antagonists” (ATXA THERAPEUTICS LIMITED, priority 2015, dated 2021).

How the values were obtained:
[1] = biological target: T1, TPα (Homo sapiens, UniProt P21731); experiment: 8-iso-PGF2α-mediated calcium mobilization in HEK.TPα cells; assay type: cell-based; settings: 10 μM 8-iso-PGF2α, estimated IC50, read-out: IC50 values for inhibition of 8-iso-PGF2α-mediated [Ca2+]i mobilization, TPα
T1 construct: expressed in transfected cells; host or cells: HEK 293 (HEK.TPα, isolate HR #4)
T1 sequence (P21731 1-343): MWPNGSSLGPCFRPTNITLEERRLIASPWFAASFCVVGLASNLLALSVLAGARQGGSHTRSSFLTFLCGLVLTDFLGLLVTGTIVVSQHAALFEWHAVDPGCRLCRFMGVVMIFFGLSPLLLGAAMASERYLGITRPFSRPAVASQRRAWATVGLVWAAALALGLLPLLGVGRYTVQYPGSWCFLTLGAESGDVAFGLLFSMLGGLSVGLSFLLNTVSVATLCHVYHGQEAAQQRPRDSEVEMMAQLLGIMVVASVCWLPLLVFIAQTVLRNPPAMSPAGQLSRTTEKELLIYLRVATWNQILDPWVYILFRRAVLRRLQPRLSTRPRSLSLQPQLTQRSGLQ
Text: (§1) Effect of NTP42-NTP48 on 8-iso-PGF2α-mediated Calcium Mobilization In addition, to assessment of the compounds to antagonise U46619-mediated responses, the ability of NTP42 & NTP43 to inhibit the partial TP agonist 8-iso-PGF2α has been examined through calcium mobilization assays in HEK.TPα and HEK.TPβ cells.
(§2) Data is presented as the mean (±S.E.M.) percentage of the agonist-induced response in vehicle-treated cells (Percentage of Control; %) and represents data from at least 3 independent experiments were cells were treated in duplicate, except NTP48.

[2] = biological target: EP2 receptor (Homo sapiens, UniProt P43116); experiment: Specificity testing, EP2 receptor signaling; assay type: cell-based
Chain of EP2 receptor (P43116 whole entry): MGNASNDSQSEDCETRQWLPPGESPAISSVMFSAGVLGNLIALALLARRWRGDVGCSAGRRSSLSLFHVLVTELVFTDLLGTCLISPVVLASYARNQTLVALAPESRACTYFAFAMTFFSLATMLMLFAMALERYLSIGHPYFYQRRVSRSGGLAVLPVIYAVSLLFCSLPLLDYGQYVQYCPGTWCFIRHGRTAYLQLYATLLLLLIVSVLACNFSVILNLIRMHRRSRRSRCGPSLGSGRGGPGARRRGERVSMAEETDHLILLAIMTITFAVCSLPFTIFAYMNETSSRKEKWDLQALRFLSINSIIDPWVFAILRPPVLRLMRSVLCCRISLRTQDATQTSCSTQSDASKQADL

[3] = biological target: EP4 receptor (Homo sapiens, UniProt P35408); experiment: Specificity testing, EP4 receptor signaling; assay type: cell-based
Chain of EP4 receptor (P35408 whole entry): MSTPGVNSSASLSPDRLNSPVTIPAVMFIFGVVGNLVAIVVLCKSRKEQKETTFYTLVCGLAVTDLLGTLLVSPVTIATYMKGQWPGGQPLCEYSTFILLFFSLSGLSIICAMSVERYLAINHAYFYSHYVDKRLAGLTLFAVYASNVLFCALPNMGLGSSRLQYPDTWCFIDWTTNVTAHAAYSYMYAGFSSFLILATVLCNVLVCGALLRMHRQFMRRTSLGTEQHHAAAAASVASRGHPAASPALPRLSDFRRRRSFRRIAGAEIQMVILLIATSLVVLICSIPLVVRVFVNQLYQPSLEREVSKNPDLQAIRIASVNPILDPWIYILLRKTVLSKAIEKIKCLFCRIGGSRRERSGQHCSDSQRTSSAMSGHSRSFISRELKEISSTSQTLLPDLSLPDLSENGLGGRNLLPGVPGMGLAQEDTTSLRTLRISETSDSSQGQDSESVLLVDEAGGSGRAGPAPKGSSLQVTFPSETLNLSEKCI
Procedure: (§3) There is no or minimal inhibition of the majority of the non-TP-mediated signaling observed in the presence of either NTP42 & NTP48. Where there is inhibition of signaling, it is observed at the 10 μM concentration only. […] Compared to NTP42, NTP48 has less of an effect on the signaling of the non-TP prostanoid receptors and therefore, may be considered more favorable in this context.

[4] = test system: purinergic (ADP) receptors; experiment: Specificity testing, purinergic (ADP) receptor signaling
[5] = biological target: T2, TPβ (Homo sapiens, UniProt P21731); experiment: 8-iso-PGF2α-mediated calcium mobilization in HEK.TPβ cells; assay type: cell-based; settings: 10 μM 8-iso-PGF2α, estimated IC50, read-out: IC50 values for inhibition of 8-iso-PGF2α-mediated [Ca2+]i mobilization, TPβ
T2 construct: expressed in transfected cells; host or cells: HEK 293 (HEK.TPβ, isolate EM #8)
T2 sequence (P21731 1-407 isoform P21731-2): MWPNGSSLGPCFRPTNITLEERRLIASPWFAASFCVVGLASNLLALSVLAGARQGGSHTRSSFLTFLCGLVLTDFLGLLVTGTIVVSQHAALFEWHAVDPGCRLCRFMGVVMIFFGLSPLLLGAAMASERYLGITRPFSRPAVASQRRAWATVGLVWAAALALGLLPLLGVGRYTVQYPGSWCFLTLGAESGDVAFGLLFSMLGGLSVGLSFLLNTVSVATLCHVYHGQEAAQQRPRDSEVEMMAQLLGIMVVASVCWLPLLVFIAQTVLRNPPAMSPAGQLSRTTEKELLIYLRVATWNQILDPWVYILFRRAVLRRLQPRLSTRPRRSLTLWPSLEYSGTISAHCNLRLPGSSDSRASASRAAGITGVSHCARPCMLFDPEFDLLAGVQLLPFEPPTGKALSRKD
Text: as §1, §2

[6] = Toxicity
[7] = biological target: T3, EP1 receptor (Homo sapiens, UniProt P34995); experiment: Specificity testing, EP1 receptor signaling; assay type: cell-based
T3 sequence (P34995 1-402): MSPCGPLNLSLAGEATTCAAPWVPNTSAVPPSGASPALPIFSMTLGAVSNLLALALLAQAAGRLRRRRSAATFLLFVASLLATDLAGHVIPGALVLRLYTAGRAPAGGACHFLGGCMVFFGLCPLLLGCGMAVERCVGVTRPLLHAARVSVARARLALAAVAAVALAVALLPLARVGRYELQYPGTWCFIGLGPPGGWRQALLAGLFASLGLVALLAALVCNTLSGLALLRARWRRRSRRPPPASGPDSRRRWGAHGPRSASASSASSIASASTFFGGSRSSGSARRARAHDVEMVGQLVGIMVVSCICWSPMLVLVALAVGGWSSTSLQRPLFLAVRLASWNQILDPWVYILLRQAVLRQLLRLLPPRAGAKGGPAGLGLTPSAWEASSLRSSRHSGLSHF
Procedure: as §3

[8] = biological target: T4, thrombin (PAR1) receptors (Homo sapiens, UniProt P25116); experiment: Specificity testing, thrombin (PAR1) receptor signaling
T4 sequence (P25116 22-425): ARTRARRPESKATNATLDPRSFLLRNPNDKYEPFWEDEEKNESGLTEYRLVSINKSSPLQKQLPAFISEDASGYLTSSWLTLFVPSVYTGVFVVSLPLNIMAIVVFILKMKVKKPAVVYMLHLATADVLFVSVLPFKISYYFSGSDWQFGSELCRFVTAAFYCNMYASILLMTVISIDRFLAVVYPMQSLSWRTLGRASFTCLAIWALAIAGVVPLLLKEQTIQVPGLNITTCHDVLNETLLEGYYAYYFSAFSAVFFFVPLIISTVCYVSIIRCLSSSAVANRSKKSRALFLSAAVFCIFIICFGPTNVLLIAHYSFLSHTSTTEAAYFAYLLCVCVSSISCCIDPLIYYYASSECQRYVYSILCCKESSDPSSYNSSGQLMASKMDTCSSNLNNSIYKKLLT

[9] = biological target: T5, DP1 receptor (Homo sapiens, UniProt Q13258); experiment: Specificity testing, DP1 receptor signaling; assay type: cell-based
T5 sequence (Q13258 1-359): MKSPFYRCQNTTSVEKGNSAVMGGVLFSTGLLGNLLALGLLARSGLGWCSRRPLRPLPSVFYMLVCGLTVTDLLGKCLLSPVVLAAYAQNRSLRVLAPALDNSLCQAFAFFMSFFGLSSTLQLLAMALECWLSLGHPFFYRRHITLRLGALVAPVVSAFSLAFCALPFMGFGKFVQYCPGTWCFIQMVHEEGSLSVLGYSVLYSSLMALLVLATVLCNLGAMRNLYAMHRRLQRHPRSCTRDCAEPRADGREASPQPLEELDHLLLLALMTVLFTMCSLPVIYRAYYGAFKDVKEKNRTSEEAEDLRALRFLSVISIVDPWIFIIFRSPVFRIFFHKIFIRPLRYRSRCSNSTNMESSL
Procedure: as §3

[10] = biological target: FP1 receptor (Homo sapiens, UniProt P43088); experiment: Specificity testing, FP1 receptor signaling; assay type: cell-based
Chain of FP1 receptor (P43088 whole entry): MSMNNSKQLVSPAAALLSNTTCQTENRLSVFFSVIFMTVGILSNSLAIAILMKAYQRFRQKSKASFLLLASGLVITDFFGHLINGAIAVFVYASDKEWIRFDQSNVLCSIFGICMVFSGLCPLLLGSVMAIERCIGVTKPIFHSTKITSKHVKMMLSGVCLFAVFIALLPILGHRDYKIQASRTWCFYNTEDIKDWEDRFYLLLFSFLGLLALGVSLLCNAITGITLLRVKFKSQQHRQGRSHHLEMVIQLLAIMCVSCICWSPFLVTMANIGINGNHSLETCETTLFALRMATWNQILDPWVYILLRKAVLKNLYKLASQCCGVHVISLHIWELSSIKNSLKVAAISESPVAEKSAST

[11] = biological target: T6, EP3 receptor (Homo sapiens, UniProt P43115); experiment: Specificity testing, EP3 receptor signaling; assay type: cell-based
T6 sequence (P43115 1-390): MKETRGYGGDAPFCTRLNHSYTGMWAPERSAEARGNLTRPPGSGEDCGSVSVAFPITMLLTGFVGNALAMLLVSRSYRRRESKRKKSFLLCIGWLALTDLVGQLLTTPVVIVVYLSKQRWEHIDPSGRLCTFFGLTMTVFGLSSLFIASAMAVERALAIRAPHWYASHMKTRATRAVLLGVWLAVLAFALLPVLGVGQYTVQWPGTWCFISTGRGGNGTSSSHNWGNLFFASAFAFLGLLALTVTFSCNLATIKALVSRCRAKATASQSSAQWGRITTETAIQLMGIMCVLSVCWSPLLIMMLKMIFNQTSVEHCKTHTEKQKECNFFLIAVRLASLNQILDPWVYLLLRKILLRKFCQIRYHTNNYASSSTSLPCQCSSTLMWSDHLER

[12] = maximal inhibition, at 10 μM only

SMILES	IC50 [1]	IC50 [5]	effect on the EP2 receptor [2]	effect on the EP4 receptor [3]	percentage reduction in responses, EP4 [3, 12]	effect on signaling through purinergic (ADP) receptors [4]	toxicity [6]	effect on the EP1 receptor [7]	percentage reduction in responses, EP1 [7, 12]	effect on signaling through thrombin (PAR1) receptors [8]	effect on the DP1 receptor (DP-mediated signaling) [9]	percentage reduction in responses, DP1 [9, 12]	effect on the FP1 receptor (FP-mediated signaling) [10]	effect on the EP3 receptor [11]
CC(C)(C)NC(=O)NS(=O)(=O)c1cc(C#N)ccc1Oc1cccc(-c2ccc(OC(F)F)cc2)c1 [NTP42]	12.8 ± 1.42 nM	8 ± 1 nM	no effect	no effect	40%	neither NTP42, NTP43 nor NTP48 exhibited any effect	minimal toxicity	no effect	~55%	neither NTP42, NTP43 nor NTP48 exhibited any effect	no effect	< 30%	no effect	no effect
COc1ccc(-c2cccc(Oc3ccc(C#N)cc3S(=O)(=O)NC(=O)NC(C)(C)C)c2)cc1 [NTP4, reference compound]	103 ± 11.1 nM	58 ± 6.31 nM	like TP20 and NTP4, neither NTP42, NTP43 nor NTP48 exhibited any effect	like TP20 and NTP4, neither NTP42, NTP43 nor NTP48 exhibited any effect		like TP20 and NTP4, neither NTP42, NTP43 nor NTP48 exhibited any effect		like TP20 and NTP4, neither NTP42, NTP43 nor NTP48 exhibited any effect		like TP20 and NTP4, neither NTP42, NTP43 nor NTP48 exhibited any effect	like TP20 and NTP4, neither NTP42, NTP43 nor NTP48 exhibited any effect		like TP20 and NTP4, neither NTP42, NTP43 nor NTP48 exhibited any effect	like TP20 and NTP4, neither NTP42, NTP43 nor NTP48 exhibited any effect
COc1ccc(-c2cccc(Oc3ccc([N+](=O)[O-])cc3S(=O)(=O)NC(=O)NC(C)(C)C)c2)cc1 [TP20, reference compound]	46.4 ± 4.24 nM	17 ± 2.12 nM	like TP20 and NTP4, neither NTP42, NTP43 nor NTP48 exhibited any effect	like TP20 and NTP4, neither NTP42, NTP43 nor NTP48 exhibited any effect		like TP20 and NTP4, neither NTP42, NTP43 nor NTP48 exhibited any effect		like TP20 and NTP4, neither NTP42, NTP43 nor NTP48 exhibited any effect		like TP20 and NTP4, neither NTP42, NTP43 nor NTP48 exhibited any effect	like TP20 and NTP4, neither NTP42, NTP43 nor NTP48 exhibited any effect		like TP20 and NTP4, neither NTP42, NTP43 nor NTP48 exhibited any effect	like TP20 and NTP4, neither NTP42, NTP43 nor NTP48 exhibited any effect

The next lines start with results.

IC50 [1]	IC50 [5]	SMILES	effect on the EP2 receptor [2]	effect on the EP4 receptor [3]	percentage reduction in responses, EP4 [3, 12]	effect on signaling through purinergic (ADP) receptors [4]	toxicity [6]	effect on the EP1 receptor [7]	percentage reduction in responses, EP1 [7, 12]	effect on signaling through thrombin (PAR1) receptors [8]	effect on the DP1 receptor (DP-mediated signaling) [9]	percentage reduction in responses, DP1 [9, 12]	effect on the FP1 receptor (FP-mediated signaling) [10]	effect on the EP3 receptor [11]
30.7 ± 5.05 nM	9 ± 1.6 nM	CC(C)(C)NC(=O)NS(=O)(=O)c1cc(C#N)ccc1Oc1cccc(-c2ccc(OC(F)(F)F)cc2)c1 [NTP43]	not to exhibit any effect	not to exhibit any effect		neither NTP42, NTP43 nor NTP48 exhibited any effect	minimal toxicity	not to exhibit any effect		neither NTP42, NTP43 nor NTP48 exhibited any effect	not to exhibit any effect		not to exhibit any effect	not to exhibit any effect
29.3 ± 3.87 nM	15.4 ± 2.16 nM	CN(C)C(=O)c1ccc(-c2cccc(Oc3ccc(C#N)cc3S(=O)(=O)NC(=O)NC(C)(C)C)c2)cc1 [NTP48, 4-[3-[2-(tert-Butylcarbamoylsulfamoyl)-4-cyano-phenoxy]phenyl]-N,N-dimethyl-benzamide]	no effect	no effect		neither NTP42, NTP43 nor NTP48 exhibited any effect	minimal toxicity	no effect		neither NTP42, NTP43 nor NTP48 exhibited any effect	no effect		no effect	no effect
